Assay results from ChEMBL document CHEMBL4507262, “Data for DCP probe A-1596586” (2021).

What was measured:
[1] = target: Melatonin receptor type 1B (Homo sapiens) (UniProt P49286); experiment: MT2 (ML1B) (h) Eurofins-Cerep binding assay; parameters: ligand concentration 0.05 nM; settings: filed as agonist, Compound concentration 10.0 uM
[2] = tested on: Epidermal growth factor receptor (Homo sapiens), P00533 [UNDEFINED MUTATION]; settings: Compound concentration 1000.0 nM
[3] = target: Serine/threonine-protein kinase RIO2 (Homo sapiens) (UniProt Q9BVS4); settings: Compound concentration 1000.0 nM
[4] = target: Adenosine receptor A2b (Homo sapiens) (UniProt P29275); experiment: A2B (h) Eurofins-Cerep binding assay; parameters: ligand concentration 5 nM; settings: filed as antagonist, Compound concentration 10.0 uM
[5] = target: Dual specificity protein kinase CLK4 (Homo sapiens) (UniProt Q9HAZ1); settings: Compound concentration 1000.0 nM
[6] = target: Serine/threonine-protein kinase pim-2 (Homo sapiens) (UniProt Q9P1W9); settings: Compound concentration 1000.0 nM
[7] = target: Macrophage colony-stimulating factor 1 receptor (Homo sapiens) (UniProt P07333); settings: Compound concentration 1000.0 nM
[8] = target: Serine/threonine-protein kinase Nek2 (Homo sapiens) (UniProt P51955); settings: Compound concentration 1000.0 nM
[9] = target: Serine/threonine-protein kinase 4 (Homo sapiens) (UniProt Q13043); settings: Compound concentration 1000.0 nM
[10] = target: Interleukin-1 receptor-associated kinase 4 (Homo sapiens) (UniProt Q9NWZ3); settings: Compound concentration 1000.0 nM
[11] = target: Ephrin type-B receptor 3 (Homo sapiens) (UniProt P54753); settings: Compound concentration 1000.0 nM
[12] = target: Serine/threonine-protein kinase PknB (Mycobacterium tuberculosis) (UniProt P9WI81); settings: Compound concentration 1000.0 nM
[13] = target: Non-receptor tyrosine-protein kinase TYK2 (Homo sapiens) (UniProt P29597); settings: Compound concentration 1000.0 nM
[14] = target: Mitogen-activated protein kinase kinase kinase kinase 1 (Homo sapiens) (UniProt Q92918); settings: Compound concentration 1000.0 nM
[15] = target: Serine/threonine-protein kinase mTOR (Homo sapiens) (UniProt P42345); settings: Compound concentration 1000.0 nM
[16] = target: cAMP-dependent protein kinase catalytic subunit alpha (Homo sapiens) (UniProt P17612); settings: Compound concentration 1000.0 nM
[17] = target: Substance-K receptor (Homo sapiens) (UniProt P21452); experiment: NK2 (h) Eurofins-Cerep binding assay; parameters: ligand concentration 0.1 nM; settings: filed as agonist, Compound concentration 10.0 uM
[18] = target: Phosphatidylinositol 3-kinase catalytic subunit type 3 (Homo sapiens) (UniProt Q8NEB9); settings: Compound concentration 1000.0 nM
[19] = target: Tyrosine-protein kinase Lyn (Homo sapiens) (UniProt P07948); settings: Compound concentration 1000.0 nM
[20] = target: Ribosomal protein S6 kinase beta-1 (Homo sapiens) (UniProt P23443); settings: Compound concentration 1000.0 nM
[21] = target: Protein kinase C epsilon type (Homo sapiens) (UniProt Q02156); settings: Compound concentration 1000.0 nM
[22] = target: Histamine H1 receptor (Homo sapiens) (UniProt P35367); settings: Compound concentration 10.0 uM
[23] = target: Serine/threonine-protein kinase TAO3 (Homo sapiens) (UniProt Q9H2K8); settings: Compound concentration 1000.0 nM
[24] = tested on: Tyrosine-protein kinase ABL1 (Homo sapiens), P00519 [M351T]; settings: Compound concentration 1000.0 nM
[25] = target: SNF-related serine/threonine-protein kinase (Homo sapiens) (UniProt Q9NRH2); settings: Compound concentration 1000.0 nM
[26] = target: Focal adhesion kinase 1 (Homo sapiens) (UniProt Q05397); settings: Compound concentration 1000.0 nM
[27] = target: Membrane-associated tyrosine- and threonine-specific cdc2-inhibitory kinase (Homo sapiens) (UniProt Q99640); settings: Compound concentration 1000.0 nM
[28] = target: Discoidin domain-containing receptor 2 (Homo sapiens) (UniProt Q16832); settings: Compound concentration 1000.0 nM
[29] = target: Tyrosine-protein kinase Yes (Homo sapiens) (UniProt P07947); settings: Compound concentration 1000.0 nM
[30] = target: Serine/threonine-protein kinase tousled-like 1 (Homo sapiens) (UniProt Q9UKI8); settings: Compound concentration 1000.0 nM
[31] = target: Rhodopsin kinase GRK1 (Homo sapiens) (UniProt Q15835); settings: Compound concentration 1000.0 nM
[32] = target: Peripheral plasma membrane protein CASK (Homo sapiens) (UniProt O14936); settings: Compound concentration 1000.0 nM
[33] = target: Myosin-IIIb (Homo sapiens) (UniProt Q8WXR4); settings: Compound concentration 1000.0 nM
[34] = target: Dual serine/threonine and tyrosine protein kinase (Homo sapiens) (UniProt Q6XUX3); settings: Compound concentration 1000.0 nM
[35] = target: Mitogen-activated protein kinase kinase kinase 2 (Homo sapiens) (UniProt Q9Y2U5); settings: Compound concentration 1000.0 nM
[36] = target: Mitotic checkpoint serine/threonine-protein kinase BUB1 (Homo sapiens) (UniProt O43683); settings: Compound concentration 1000.0 nM
[37] = target: Interleukin-1 receptor-associated kinase 1 (Homo sapiens) (UniProt P51617); settings: Compound concentration 1000.0 nM
[38] = tested on: Fibroblast growth factor receptor 3 (Homo sapiens), P22607 [G697C]; settings: Compound concentration 1000.0 nM
[39] = target: Cholecystokinin receptor type A (Homo sapiens) (UniProt P32238); experiment: CCK1 (CCKA) (h) Eurofins-Cerep binding assay; settings: filed as agonist, Compound concentration 10.0 uM
[40] = target: Serine/threonine-protein kinase B-raf (Homo sapiens) (UniProt P15056); settings: Compound concentration 1000.0 nM
[41] = target: Serine/threonine-protein kinase PAK 5 (Homo sapiens) (UniProt Q9P286); settings: Compound concentration 1000.0 nM
[42] = target: Serine/threonine-protein kinase Chk1 (Homo sapiens) (UniProt O14757); settings: Compound concentration 1000.0 nM
[43] = target: Death-associated protein kinase 2 (Homo sapiens) (UniProt Q9UIK4); settings: Compound concentration 1000.0 nM
[44] = tested on: Proto-oncogene tyrosine-protein kinase receptor Ret (Homo sapiens), P07949 [V804L]; settings: Compound concentration 1000.0 nM
[45] = tested on: Mast/stem cell growth factor receptor Kit (Homo sapiens), P10721 [D816H]; settings: Compound concentration 1000.0 nM
Mast/stem cell growth factor receptor Kit (Homo sapiens), P10721 [D816H], sequence (P10721 whole entry D816H): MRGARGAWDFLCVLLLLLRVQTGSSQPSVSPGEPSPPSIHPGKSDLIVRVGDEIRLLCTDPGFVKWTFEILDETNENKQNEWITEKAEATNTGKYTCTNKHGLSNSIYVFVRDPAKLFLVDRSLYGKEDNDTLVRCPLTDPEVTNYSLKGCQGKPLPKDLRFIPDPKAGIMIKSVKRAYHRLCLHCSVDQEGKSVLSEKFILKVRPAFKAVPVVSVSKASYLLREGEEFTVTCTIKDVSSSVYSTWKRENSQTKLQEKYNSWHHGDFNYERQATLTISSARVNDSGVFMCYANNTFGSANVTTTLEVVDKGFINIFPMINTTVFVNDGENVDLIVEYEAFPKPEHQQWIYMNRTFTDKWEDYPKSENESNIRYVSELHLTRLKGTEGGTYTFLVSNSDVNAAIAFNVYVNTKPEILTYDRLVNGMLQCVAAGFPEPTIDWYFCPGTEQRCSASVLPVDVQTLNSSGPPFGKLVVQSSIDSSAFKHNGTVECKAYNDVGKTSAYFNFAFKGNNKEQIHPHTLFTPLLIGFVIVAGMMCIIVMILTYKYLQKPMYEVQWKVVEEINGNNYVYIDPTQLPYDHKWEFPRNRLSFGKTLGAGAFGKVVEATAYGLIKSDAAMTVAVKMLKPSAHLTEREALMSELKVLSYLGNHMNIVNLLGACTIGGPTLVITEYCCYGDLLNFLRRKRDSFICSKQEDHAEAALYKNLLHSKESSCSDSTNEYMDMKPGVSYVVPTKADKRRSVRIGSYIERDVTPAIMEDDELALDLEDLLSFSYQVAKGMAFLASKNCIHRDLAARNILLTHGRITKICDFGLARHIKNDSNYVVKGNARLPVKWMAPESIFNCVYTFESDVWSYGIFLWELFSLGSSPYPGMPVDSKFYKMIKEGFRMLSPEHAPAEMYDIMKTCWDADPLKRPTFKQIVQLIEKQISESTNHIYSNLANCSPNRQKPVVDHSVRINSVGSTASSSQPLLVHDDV

Substance-K receptor (Homo sapiens), sequence (P21452 whole entry): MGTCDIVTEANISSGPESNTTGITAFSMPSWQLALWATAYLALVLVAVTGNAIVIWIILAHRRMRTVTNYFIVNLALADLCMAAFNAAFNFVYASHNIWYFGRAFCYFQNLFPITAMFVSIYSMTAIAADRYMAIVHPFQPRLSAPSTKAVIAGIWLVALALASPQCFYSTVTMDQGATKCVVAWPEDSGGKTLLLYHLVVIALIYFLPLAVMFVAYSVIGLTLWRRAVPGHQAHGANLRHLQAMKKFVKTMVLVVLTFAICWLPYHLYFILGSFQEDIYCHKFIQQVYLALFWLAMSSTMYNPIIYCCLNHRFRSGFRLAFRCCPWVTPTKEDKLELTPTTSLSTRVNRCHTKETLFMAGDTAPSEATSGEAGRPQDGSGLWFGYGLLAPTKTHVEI
Peripheral plasma membrane protein CASK (Homo sapiens), sequence (O14936 whole entry): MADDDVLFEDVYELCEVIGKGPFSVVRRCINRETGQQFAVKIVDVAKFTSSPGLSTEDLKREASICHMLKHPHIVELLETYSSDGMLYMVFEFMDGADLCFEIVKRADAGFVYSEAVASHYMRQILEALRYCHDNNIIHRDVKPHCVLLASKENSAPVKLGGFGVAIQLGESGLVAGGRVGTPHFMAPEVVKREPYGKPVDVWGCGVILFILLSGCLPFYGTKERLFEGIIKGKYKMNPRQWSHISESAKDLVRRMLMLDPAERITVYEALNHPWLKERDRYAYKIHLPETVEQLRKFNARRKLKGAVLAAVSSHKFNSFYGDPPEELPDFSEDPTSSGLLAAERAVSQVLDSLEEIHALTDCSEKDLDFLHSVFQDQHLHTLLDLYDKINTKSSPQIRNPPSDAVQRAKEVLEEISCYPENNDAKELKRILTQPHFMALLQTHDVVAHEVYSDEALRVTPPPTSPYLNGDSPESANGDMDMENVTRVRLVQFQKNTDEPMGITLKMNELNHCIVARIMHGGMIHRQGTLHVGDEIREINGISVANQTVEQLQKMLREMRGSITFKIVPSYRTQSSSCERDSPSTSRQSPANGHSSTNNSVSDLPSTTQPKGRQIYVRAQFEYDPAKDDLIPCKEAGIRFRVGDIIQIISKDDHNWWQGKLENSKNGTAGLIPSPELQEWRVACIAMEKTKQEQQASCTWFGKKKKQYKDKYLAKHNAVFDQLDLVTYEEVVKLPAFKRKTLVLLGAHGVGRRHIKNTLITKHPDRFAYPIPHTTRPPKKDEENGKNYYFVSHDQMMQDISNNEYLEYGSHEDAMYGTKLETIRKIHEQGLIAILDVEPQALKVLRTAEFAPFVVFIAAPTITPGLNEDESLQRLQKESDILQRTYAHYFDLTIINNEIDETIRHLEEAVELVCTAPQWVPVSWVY
Mitogen-activated protein kinase kinase kinase kinase 1 (Homo sapiens), sequence (Q92918 whole entry, looked up): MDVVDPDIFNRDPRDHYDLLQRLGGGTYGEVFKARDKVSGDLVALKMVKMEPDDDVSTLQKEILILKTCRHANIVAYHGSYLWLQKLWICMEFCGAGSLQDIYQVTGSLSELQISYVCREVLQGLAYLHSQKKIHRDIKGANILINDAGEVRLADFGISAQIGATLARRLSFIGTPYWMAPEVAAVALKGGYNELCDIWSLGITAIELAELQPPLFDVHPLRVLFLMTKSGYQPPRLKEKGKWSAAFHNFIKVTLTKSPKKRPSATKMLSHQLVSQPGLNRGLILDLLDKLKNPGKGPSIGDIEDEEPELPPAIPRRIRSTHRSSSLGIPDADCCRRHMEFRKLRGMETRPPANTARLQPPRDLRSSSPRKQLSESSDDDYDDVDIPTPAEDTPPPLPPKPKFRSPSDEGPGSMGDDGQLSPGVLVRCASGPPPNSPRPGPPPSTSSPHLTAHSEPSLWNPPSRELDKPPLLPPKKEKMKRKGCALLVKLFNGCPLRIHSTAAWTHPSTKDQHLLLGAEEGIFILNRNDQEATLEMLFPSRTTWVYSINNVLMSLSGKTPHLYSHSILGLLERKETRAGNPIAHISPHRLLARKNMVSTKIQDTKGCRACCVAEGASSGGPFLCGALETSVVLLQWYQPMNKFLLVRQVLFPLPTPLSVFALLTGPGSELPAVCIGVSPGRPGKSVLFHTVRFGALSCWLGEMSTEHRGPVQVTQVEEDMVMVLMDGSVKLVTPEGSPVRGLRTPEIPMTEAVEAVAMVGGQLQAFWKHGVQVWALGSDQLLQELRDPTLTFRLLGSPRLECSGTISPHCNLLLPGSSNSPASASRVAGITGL
Serine/threonine-protein kinase PknB (Mycobacterium tuberculosis), sequence (P9WI81 whole entry): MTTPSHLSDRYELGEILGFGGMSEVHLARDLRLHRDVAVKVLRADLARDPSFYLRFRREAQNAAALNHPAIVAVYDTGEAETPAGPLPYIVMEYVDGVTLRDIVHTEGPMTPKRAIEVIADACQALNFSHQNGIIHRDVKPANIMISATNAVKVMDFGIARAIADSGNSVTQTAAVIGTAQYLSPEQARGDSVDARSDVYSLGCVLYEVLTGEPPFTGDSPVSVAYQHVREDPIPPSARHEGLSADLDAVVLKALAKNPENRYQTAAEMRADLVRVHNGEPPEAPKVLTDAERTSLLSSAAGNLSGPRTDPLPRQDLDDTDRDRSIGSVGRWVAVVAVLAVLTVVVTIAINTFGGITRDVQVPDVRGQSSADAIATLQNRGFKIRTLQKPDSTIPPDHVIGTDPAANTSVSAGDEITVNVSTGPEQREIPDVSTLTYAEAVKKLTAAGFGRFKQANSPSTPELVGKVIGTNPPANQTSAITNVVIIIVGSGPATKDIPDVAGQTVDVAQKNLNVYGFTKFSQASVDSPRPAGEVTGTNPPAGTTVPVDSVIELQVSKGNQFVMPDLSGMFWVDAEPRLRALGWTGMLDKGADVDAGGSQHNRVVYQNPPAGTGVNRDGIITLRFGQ
Protein kinase C epsilon type (Homo sapiens), sequence (Q02156 whole entry): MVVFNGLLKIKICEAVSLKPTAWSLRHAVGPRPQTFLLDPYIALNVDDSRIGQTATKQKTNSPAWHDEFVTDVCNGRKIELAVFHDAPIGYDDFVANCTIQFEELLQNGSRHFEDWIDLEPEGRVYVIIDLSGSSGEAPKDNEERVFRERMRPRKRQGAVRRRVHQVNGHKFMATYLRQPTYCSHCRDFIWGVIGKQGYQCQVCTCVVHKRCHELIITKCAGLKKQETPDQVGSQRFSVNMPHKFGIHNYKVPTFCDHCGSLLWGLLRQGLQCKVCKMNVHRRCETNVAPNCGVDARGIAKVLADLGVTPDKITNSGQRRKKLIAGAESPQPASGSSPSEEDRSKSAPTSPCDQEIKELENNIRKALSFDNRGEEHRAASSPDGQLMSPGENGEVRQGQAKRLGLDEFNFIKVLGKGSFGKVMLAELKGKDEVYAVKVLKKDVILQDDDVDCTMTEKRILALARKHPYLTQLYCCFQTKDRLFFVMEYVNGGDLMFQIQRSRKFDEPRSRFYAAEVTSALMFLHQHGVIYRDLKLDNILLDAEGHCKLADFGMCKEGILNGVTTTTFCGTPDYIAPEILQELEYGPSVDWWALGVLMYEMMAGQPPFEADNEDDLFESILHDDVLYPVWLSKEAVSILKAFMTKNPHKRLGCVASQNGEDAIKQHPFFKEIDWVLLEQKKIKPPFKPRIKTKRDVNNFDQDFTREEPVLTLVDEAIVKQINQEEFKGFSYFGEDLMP
Dual specificity protein kinase CLK4 (Homo sapiens), sequence (Q9HAZ1 whole entry, looked up): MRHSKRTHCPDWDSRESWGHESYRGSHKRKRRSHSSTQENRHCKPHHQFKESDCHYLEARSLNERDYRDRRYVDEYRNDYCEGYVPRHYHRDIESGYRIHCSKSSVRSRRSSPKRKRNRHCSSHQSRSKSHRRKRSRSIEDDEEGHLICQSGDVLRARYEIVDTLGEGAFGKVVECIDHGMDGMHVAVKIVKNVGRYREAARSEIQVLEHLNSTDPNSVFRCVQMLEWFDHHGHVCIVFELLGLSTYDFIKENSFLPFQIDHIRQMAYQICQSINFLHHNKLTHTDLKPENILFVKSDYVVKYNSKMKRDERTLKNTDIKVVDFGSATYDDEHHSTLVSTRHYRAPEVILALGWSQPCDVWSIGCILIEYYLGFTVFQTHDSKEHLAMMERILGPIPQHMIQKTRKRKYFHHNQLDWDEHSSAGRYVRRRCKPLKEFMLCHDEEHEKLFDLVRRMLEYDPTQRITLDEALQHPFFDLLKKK

COc1ccc2c(c1)O[C@@H](c1ccc(OC)c(OC)c1)C[C@H]2NC(=O)C1(c2ccc3c(c2)OC(F)(F)O3)CC1 [A-1596586]
11.5%: % Inhibition of Control Specific Binding (Mean n=2) [17]
-51.6%: % Inhibition of Control Specific Binding (Mean n=2) [39]
inactive: residual activity [2] 100% | residual activity [3] 100% | residual activity [5] 100% | residual activity [6] 100% | residual activity [7] 82% | residual activity [8] 97% | residual activity [9] 79% | residual activity [10] 82% | residual activity [11] 90% | residual activity [12] 85% | residual activity [13] 91% | residual activity [14] 90% | residual activity [15] 100% | residual activity [16] 100% | residual activity [18] 78% | residual activity [19] 100% | residual activity [20] 81% | residual activity [21] 91% | inhibition [22] 22.3% | residual activity [23] 91% | residual activity [24] 78% | residual activity [25] 90% | residual activity [26] 94% | residual activity [27] 90% | residual activity [28] 98% | residual activity [29] 100% | residual activity [30] 84% | residual activity [31] 95% | residual activity [32] 100% | residual activity [33] 100% | residual activity [34] 76% | residual activity [35] 86% | residual activity [36] 99% | residual activity [37] 80% | residual activity [38] 95% | residual activity [40] 100% | residual activity [41] 75% | residual activity [42] 100% | residual activity [43] 98% | residual activity [44] 95% | residual activity [45] 94%
3.7%: % Inhibition of Control Specific Binding (Mean n=2) [4]
41%: % Inhibition of Control Specific Binding (Mean n=2) [1]

COc1ccc2c(c1)O[C@H](c1ccc(OC)c(OC)c1)C[C@@H]2NC(=O)C1(c2ccc3c(c2)OC(F)(F)O3)CC1 [A-1596584]
11.5%: % Inhibition of Control Specific Binding (Mean n=2) [17]
38%: % Inhibition of Control Specific Binding (Mean n=2) [1]
inactive: residual activity [2] 98% | residual activity [3] 100% | residual activity [5] 92% | residual activity [6] 100% | residual activity [7] 100% | residual activity [8] 100% | residual activity [9] 95% | residual activity [10] 100% | residual activity [11] 91% | residual activity [12] 88% | residual activity [13] 100% | residual activity [14] 98% | residual activity [15] 100% | residual activity [16] 100% | residual activity [18] 88% | residual activity [19] 88% | residual activity [20] 91% | residual activity [21] 90% | inhibition [22] 49.9% | residual activity [23] 100% | residual activity [24] 88% | residual activity [25] 92% | residual activity [26] 100% | residual activity [27] 100% | residual activity [28] 94% | residual activity [29] 97% | residual activity [30] 100% | residual activity [31] 97% | residual activity [32] 85% | residual activity [34] 94% | residual activity [35] 91% | residual activity [36] 100% | residual activity [37] 93% | residual activity [38] 93% | residual activity [40] 92% | residual activity [41] 100% | residual activity [42] 100% | residual activity [43] 98% | residual activity [44] 87% | residual activity [45] 100%
3.6%: % Inhibition of Control Specific Binding (Mean n=2) [4]
active: residual activity [33] 39%
-38.6%: % Inhibition of Control Specific Binding (Mean n=2) [39]
